{"source": "patent US20250255876A1", "about": "“COMPOSITIONS AND METHODS FOR CANCER TREATMENT” (ARIEL SCIENTIFIC INNOVATIONS LTD., priority 2021, published 2025)", "key": {"[1]": {"target": "MAD2L2-Rev1 complex (Homo sapiens, UniProt Q9UI95)", "sequence (Q9UI95 whole entry, one chain of several)": "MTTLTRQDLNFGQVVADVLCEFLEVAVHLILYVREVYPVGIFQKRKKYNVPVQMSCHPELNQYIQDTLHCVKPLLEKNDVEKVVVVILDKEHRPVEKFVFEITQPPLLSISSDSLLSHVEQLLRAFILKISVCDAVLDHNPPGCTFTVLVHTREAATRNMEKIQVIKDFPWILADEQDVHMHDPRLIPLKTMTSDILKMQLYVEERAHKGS", "test": "Proximity ligation assay (PLA) of MAD2L2-Rev1 binding", "type": "cell-based", "experimental": "FIG. 16 is a bar graph showing that c #3 reduces Rev1-MAD2L2 interaction. PLA on cells treated with 10 μM cisplatin and 100 μM of c #3 for 24 h. In each analyzed field, cells and foci were counted separately and the ratio of foci/cell was calculated. Each dot represents the average of foci/cell in one analyzed field. SD=1. The P-value was calculated by a one-tailed t-test.\n#3 disturbs MAD2L2-Rev1 complex formation. Detection of MAD2L2-Rev1 binding using the proximity ligation assay (PLA), which allows endogenous detection of protein-protein interactions. To enrich for MAD2L2-Rev1 foci, cells were co-treated with 10 μM cisplatin and 100 μM c #3 for 24h. Next, the PLA reaction was performed and foci, representing the MAD2L2-Rev1 complex, were counted."}, "[2]": {"target": "MAD2L2 (Homo sapiens, UniProt Q9UI95)", "sequence (Q9UI95 whole entry)": "as the sequence (Q9UI95 whole entry, one chain of several) above", "test": "Field Effect Biosensing (FEB) binding assay", "design": "made in house; host or cells: E. coli BL21 Star", "experimental": "E. coli BL21 Star cells were transfected with GST-MAD2L2 vector. Protein induction was done for 4 hours in 30° C., with 1 mM IPTG. Purification was done according to standard GST protocol.\nThe binding kinetics of MAD2L2 to the small molecule compounds were measured by the Field Effect Biosensing (FEB) Agile R100 label-free binding assay (Nanomedical Diagnostics Inc), following their standard protocol. Briefly, 500 nM of purified MAD2L2 was immobilized on a graphene sensor chip through amine groups. The current baseline level for the chip was recorded in PBS. Next, PBS was aspirated, and the changes in the baseline current induced by 50 μl of 1, 10, 20, 30, 40 and 50 μM droplets of the tested compound were recorded. KD values were calculated by the DataLine 2.0 software by either a Hill equation fit or by using the kon and koff values at a single concentration. The KD values obtained by these two methods were almost identical.\nIn order to validate that MAD2L2 is a direct target of c #2 and c #3, the inventors tested the compounds' binding kinetics to a recombinant protein by Field Effect Biosensing (FEB) technology. Briefly, purified GST-MAD2L2 was immobilized onto a graphite chip, and the current across the chip is measured to determine the baseline current. […] The Kon and Koff of the interaction were measured over time and were used to calculate the KD. […]"}}, "note": "“Also recorded” adds a separate entry of the source.", "data": [{"compound": "Cc1oc(-c2ccco2)nc1CC(=O)N[C@@H](C(=O)O)c1ccccc1", "note": "[Compound 3]", "values": [{"measurement": "ratio of MAD2L2-Rev1 PLA foci per cell, co-treatment", "setting": "[1]; 10 μM cisplatin + 100 μM c #3, 24 h, compared to cisplatin alone", "result": "reduced ratio of foci per cell"}, {"measurement": "MAD2L2-Rev1 complex formation (PLA), c #3 alone", "setting": "[1]; c #3 alone compared to DMSO", "result": "no effect on complex formation when DNA-damage is not induced"}, {"measurement": "affinity to MAD2L2 compared with c #2", "setting": "[2]; from FEB KD values, listed as c #3", "result": "approximately seven-fold higher; also recorded: sevenfold higher"}, {"measurement": "Kd", "setting": "[2]; purified GST-MAD2L2 immobilized on chip, 1-50 μM compound", "result": 44.9, "unit": "µM"}]}]}
